Laboratory results reported in patent EP2520297A1, “Rubreserine and its derivates with antiparasitic activity” (Commissariat à l'Énergie Atomique et aux Énergies …, priority 2011, dated 2012).
Like-named read-outs stand apart in the source and are kept apart here.

Assays:
[1] = biological target: T1, recombinant Arabidopsis thaliana GAT-ADCS (Arabidopsis thaliana, UniProt Q8LPN3); assay: Determination of GAT-ADCS activities (glutamate or pABA production, fluorescence); format: biochemical
T1 construct: made in house
Protocol: Both proteins were expressed and purified as described in the publication of D. Camara et al., Archives of Biochemistry and Biophysics 505 (2011) 83-90.
GAT-ADCS activity can be determined by measuring the production of either glutamate or pABA. Standard assays contained 100 mM Tris/HCl (pH 8.0), 5 mM MgCl2, 5% V/V glycerol, 0 to 0.5 mM L-glutamine, 0.1 mM chorismate, 9 yg ml^-1 (90 nM) of the recombinant Arabidopsis thaliana GAT-ADCS and either 1 mM NAD and an excess of glutamate deshydrogenase (GDH) for glutamate determination, or an excess of Escherichia coli ADCL (20 µg ml^-1, 600 nM) for pABA determination. Reactions (final volume 80 µl) were run in the wells of a 96 well microplate (Greiner) and changes in fluorescence were continuously monitored with a microplate scanning spectrophotometer Safir 2 (Tecan). The glutamate production was followed by the fluorescence emission of NADH at 450 nm (excitation 340 nm). The pABA production was directly followed by the increase of the fluorescence emission at 340 nm (excitation 290 nm).
The equipment involved an automated screening station (Tecan Genesis 2000, Lyon, France), including a microplate reader. The platform is controlled by software for driving of serial devices and assays scheduling (Tecan Gemini 4.2 and FACTS 4.82 software). The library of compounds was purchased from The Prestwick Chemical Library®. This library contains 1200 molecules, 100% being marketed drugs, supplied at a 5 mM concentration in DMSO. The final concentration used in the enzymatic assay was 100 µM, and it was verified in separate control experiments that 2% DMSO had no effect on the activity. The enzymatic test used to determine GAT-ADCS activity in primary and secondary screenings was based on glutamate determination, as described above. After optimization of the assay, the Z' factor was comprised between 0.68 and 0.84.

ADCS = ADCS (Escherichia coli, UniProt P05041); settings: purified enzyme; M. C. Kozlowski et al., J. Am. Chem. Soc. 117 (1995); cited from earlier work
[2] = tested on: Toxoplasma gondii tachyzoites (RH-YFP2 strain); assay: Toxoplasma gondii intracellular proliferation assay; format: cell-based
Protocol: (§1) Toxoplasma gondii tachyzoites (RH-YFP2 strain) were propagated in human foreskin fibroblasts (HFFs). Human cells were grown in DMEM supplemented with 100 U/mL penicillin, […] streptomycin, 2 mM glutamine, and 10% FBS (Gibco). To obtain extracellular parasites, host cells were forced through a 26.5 gauge needle, and then the released parasites were purified by filtration through a 3 µm polycarbonate membrane before use.
For the proliferation assay, 10^5 parasites/well were centrifuged on HFF monolayers for 30 seconds at 1300 rpm and incubated for 15 minutes in a water bath at 37°C for invasion. Wells were then washed three times with PBS to eliminate extracellular parasites and drugs were added. After 24 hours at 37°C in a humidified atmosphere containing 5% CO2, cells were fixed as described above. The number of parasites from up to 200 individual vacuoles was counted for each drug concentration.

[3] = tested on: Toxoplasma gondii tachyzoites (RH-YFP2 strain); assay: Toxoplasma gondii invasion assay in human fibroblasts; format: cell-based; settings: for IC50: Toxoplasma gondii, Fibroblast, calculated from the curves of Figures 3A and 3B (invasion and intracellular replication)
Protocol: as §1
For the invasion assay, RH-YFP2 parasites were incubated for 5 hours with the different drugs. Then 10^6 parasites/well were centrifuged for 30 seconds at 1300 rpm on HFF monolayers to synchronize invasion and wells were incubated for 15 minutes in a water bath at 37°C. Wells were washed three times with cold PBS to eliminate extracellular parasites and cells were fixed in 2.5% formaldehyde/PBS for 30 minutes and stored in PBS at 4°C until staining. To distinguish intracellular from extracellular parasites, cells were incubated with the primary antibody mAb Tg05-54 to detect the major Toxoplasma surface protein SAG1 (TgSAG1), then with Texas Red-conjugated goat anti-mouse secondary antibody (Molecular Probes). […] Nuclei were stained with Hoechst 33258 (Molecular Probes). To determine the number of intracellular parasites, 12 randomly selected fields were counted per well and per experiment with a Zeiss Axioplan 2 microscope equipped for epifluorescence and phase-contrast. Invasion was expressed as % of the number of intracellular parasites recorded in non-treated cells.

[4] = tested on: confluent human fibroblast cells; assay: Effect on confluent human fibroblast cells; format: cell-based; settings: concentrations up to 50 µM
Protocol: Firstly, it was verified that rubreserine concentrations up to 50 µM had no effect on confluent human fibroblast cells. The effect of rubreserine on Toxoplasma gondii parasites was then studied in two situations: • i) in invasion of human fibroblasts, and • ii) in intracellular development of the parasites.

[5] = tested on: 3D7 strain of Plasmodium falciparum; assay: Plasmodium falciparum SYBR Green 1-based fluorescence growth assay; format: cell-based; settings: 3D7, 96 h
Protocol: The 3D7 strain of Plasmodium falciparum was maintained in O+ blood. A rubreserine 10 mM stock concentration was made up in 1 × PBS pH = 7.5. This stock solution was then diluted serially to obtain the growth curve. Growth inhibition was measured after 96 hours by using an in vitro SYBR Green 1-based fluorescence growth assay, as previously described (T. N. Bennett et al., Antimicrob. Agents Chemoter. (2004) 48 1807-1810; M. Smilkstein et al., Antimicrob. Agents Chemoter. (2004) […] 1803-1806).

ADCL = biological target: T2, ADCL (Escherichia coli, UniProt P28305); assay: Control experiment on ADCL; format: biochemical; settings: control experiments
T2 construct: made in house

[6] = tested on: Arabidopsis thaliana (ecotype Columbia) seedlings; assay: Arabidopsis thaliana seedling growth on agar plates; format: in vivo
Protocol: Arabidopsis thaliana (ecotype Columbia) seedlings were grown on plates containing Murashige and Skoog medium, […], plus the various molecules to be tested. Seeds were first sterilized by soaking for 15 minutes in a solution containing 0,095% Tween® 20 and 0,57% sodium hypochlorite before to be laid on the agar medium. The plates were conserved in the dark at 4°C for 48 hours, and then transferred in a green house (20°C, 80% humidity, 150 µE.m^-2.s^-1, 12 hours light period). The number of seedlings at the two leaf stage (rosette stage) was counted after 2 weeks.

Toxoplasma gondii = settings: read-out: IC50 generally reported in the literature; P. Meneceur, Antimicrob. Agents Chemother. 52 (2008); cited from earlier work

T1 sequence (Q8LPN3 46-919): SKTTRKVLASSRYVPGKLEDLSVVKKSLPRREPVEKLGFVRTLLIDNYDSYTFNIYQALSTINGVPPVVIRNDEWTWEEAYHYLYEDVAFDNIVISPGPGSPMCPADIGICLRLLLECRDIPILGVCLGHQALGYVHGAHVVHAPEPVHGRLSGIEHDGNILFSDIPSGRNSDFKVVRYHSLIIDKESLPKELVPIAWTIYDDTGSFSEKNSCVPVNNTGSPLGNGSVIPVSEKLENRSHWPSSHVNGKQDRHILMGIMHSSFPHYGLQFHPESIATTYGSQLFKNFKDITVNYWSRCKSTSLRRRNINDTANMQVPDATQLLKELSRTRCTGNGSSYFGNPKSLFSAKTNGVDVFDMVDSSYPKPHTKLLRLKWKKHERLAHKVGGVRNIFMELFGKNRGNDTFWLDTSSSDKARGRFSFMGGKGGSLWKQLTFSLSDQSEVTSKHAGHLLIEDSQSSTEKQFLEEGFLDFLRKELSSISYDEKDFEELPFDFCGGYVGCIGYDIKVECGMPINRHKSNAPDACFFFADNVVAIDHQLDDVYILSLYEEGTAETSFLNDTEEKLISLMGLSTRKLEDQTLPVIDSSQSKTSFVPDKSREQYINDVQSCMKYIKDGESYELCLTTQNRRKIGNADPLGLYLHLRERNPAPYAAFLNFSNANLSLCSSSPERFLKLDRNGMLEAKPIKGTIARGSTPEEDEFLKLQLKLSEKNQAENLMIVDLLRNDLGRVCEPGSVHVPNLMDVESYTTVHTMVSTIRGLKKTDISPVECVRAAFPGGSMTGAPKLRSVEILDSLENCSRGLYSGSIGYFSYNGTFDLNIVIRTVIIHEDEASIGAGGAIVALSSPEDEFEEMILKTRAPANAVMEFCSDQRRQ
T2 sequence (P28305 whole entry): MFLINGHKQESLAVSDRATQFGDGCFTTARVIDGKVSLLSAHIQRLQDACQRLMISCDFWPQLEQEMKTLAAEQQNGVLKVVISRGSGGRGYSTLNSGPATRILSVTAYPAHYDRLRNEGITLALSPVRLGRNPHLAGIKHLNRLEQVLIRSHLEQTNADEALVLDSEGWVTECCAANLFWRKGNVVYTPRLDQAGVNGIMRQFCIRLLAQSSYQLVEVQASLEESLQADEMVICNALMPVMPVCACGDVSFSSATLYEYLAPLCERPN
Chain of ADCS (P05041 whole entry): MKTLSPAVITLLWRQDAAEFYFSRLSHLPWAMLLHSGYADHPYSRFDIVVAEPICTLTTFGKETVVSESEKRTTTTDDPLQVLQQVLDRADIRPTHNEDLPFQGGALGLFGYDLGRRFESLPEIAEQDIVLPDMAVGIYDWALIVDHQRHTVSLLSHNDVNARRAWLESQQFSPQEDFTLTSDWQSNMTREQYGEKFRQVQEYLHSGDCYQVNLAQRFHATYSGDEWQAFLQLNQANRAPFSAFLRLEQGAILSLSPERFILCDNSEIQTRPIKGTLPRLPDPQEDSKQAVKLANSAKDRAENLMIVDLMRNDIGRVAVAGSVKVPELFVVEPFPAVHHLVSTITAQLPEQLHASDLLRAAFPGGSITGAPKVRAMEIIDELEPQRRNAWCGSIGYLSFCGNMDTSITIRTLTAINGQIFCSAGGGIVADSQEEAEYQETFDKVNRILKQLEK

CN1CCC2(C)c3cc(O)ccc3N(C)C12 (single isomer, unassigned) [eseroline, reference compound]
effect on the enzyme activity [1]: no or little effect

C=C(OC1C(O)=C(C(=O)O)C=CC1N)C(=O)O (stereo not shown) [2-hydroxy-4-amino-4-deoxy chorismate]
Ki (ADCS): 38 µM

CN1CCC2(C)C3=CC(=O)C(=O)C=C3N(C)C12 (stereo not shown) [rubreserine]
inhibition in the presence of pABA or 5-FTHF ([2]; 20 µM rubreserine with 100 µM pABA or 100 µM 5-FTHF): significantly reversed the inhibition
number of parasites in the parasitophorous vacuoles ([2]; 24 hours after invasion, 200 vacuoles counted): decreased
inhibition in combination with pyrimethamine ([2]; rubreserine 20 µM with pyrimethamine 0.4 µM, compared to rubreserine alone): increased
number of intracellular parasites ([3]; 20 µM, parasites incubated 5 hours with drug, 15 minutes contact with human cells): reduced two times
IC50 [3]: ~20 µM
efficiency compared with sulfanilamide and sulfadiazine ([3]; invasion of human fibroblasts or intracellular replication): more efficient
period of incubation required to obtain maximal inhibition ([1]; GAT activity, 10 and 20 µM): 20 min
Ki ([1]; bifunctional GAT-ADCS, summary statement, read-out: apparent inhibitory constant (Ki)): < 10 µM
type of inhibition ([1]; decreased Vm for pABA production, increased Km for glutamine): mixed-type inhibition
inhibitory effect after incubation with a reducing agent ([1]; incubation with dithiothreitol (DTT)): suppressed the inhibitory effect
Ki ([1]; pABA production, varying glutamine, 100 µM chorismate, 20 minutes incubation with rubreserine, estimated from the curves, read-out: Ki): ~4 µM
Ki ([1]; pABA production, varying glutamine, 100 µM chorismate, 20 minutes incubation with rubreserine, estimated from the curves, read-out: αKi): ~9 µM
effect on confluent human fibroblast cells [4]: no effect
IC50 [5]: ~1200 nM
effect on ADCL (ADCL): no effect
growth inhibition with 5-formyl tetrahydrofolate ([6]; 200 µM 5-FTHF together with rubreserine, lower extent than pABA): able to revert the inhibitory effect
growth inhibition with pABA ([6]; agar plates supplemented with 200 µM pABA together with rubreserine): suppressed or largely reduced
growth of seedlings ([6]; agar plates, various concentrations (50 or 100 µM), two weeks): dose-dependent growth inhibition

Nc1ccc(S(=O)(=O)Nc2ncccn2)cc1 [sulfadiazine, reference compound]
IC50 [3]: > 50 µM
IC50 (Toxoplasma gondii): > 30 µM
